Results as given in patent publication US20250326790A1, “PEPTIDES BINDING TO HYPOXIA INDUCIBLE FACTORS AND THEIR USE” (UNIVERSITY OF SOUTHAMPTON, priority 2021, published 2025).
*1 amine or outer side, *2 acyl side, *3 side chain or, on linkers, in order; H or OH if unused. Where a SMILES comes first, the peptide text is derived from it. [ ]: non-standard residue; d: D form. Phe(4-I) = N[C@@H](Cc1ccc(I)cc1)C(=O)O; hLeu = CC(C)CC[C@H](N)C(=O)O; CO = O=C([*:1])[*:2]

What follows are compounds tested against recombinantly expressed PAS-B domain of HIF-1α (Homo sapiens (Human), UniProt Q16665) (assay: MST binding affinity to PAS-B domain of HIF-1α). Conditions: microscale thermophoresis, 50 nM labelled protein, 10% DMSO.
Method: MST experiments were performed on a Monolith NT.115 system (Nanotemper Technologies GmbH), in assay buffer containing 50 nM labelled protein, 10% DMSO and 0.05% TWEEN-20. MST measurements were performed using 50% LED and 50% MST power.

Sequence of recombinantly expressed PAS-B domain of HIF-1α (Q16665 228-298): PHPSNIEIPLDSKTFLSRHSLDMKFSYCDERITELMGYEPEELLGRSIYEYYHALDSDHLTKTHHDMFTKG

| Structure (SMILES) | Kd [µM] |
| --- | --- |
| CNC(=O)N[C@@H](CCC(C)C)C(=O)N[C@@H](Cc1ccc(I)cc1)C(=O)N[C@@H](CS)C(N)=O [Example 5] ({NHMe-CO}-[hLeu]-[Phe(4-I)]-Cys-NH2) | > 50 |
| Cc1c(S(=O)(=O)N[C@@H](CCC(C)C)C(=O)N[C@@H](Cc2ccc(I)cc2)C(=O)N[C@@H](CS)C(N)=O)sc2ccc(Cl)cc12 [Example 28] | 8 |
| CC(C)CC[C@H](NS(=O)(=O)c1ccc(Cl)s1)C(=O)N[C@@H](Cc1ccc(I)cc1)C(=O)N[C@@H](CS)C(=O)NCCCCCN [Example 40] | 100 |
| CC(C)CC[C@H](NS(=O)(=O)c1cc(Cl)c(Cl)s1)C(=O)N[C@@H](Cc1ccc(I)cc1)C(=O)N[C@@H](CC(N)=O)C(=O)NCCCCl [Example 58] | > 500 |
| CC(C)CC[C@H](NS(=O)(=O)c1cc(Cl)c(Cl)s1)C(=O)N(C)[C@@H](Cc1ccc(I)cc1)C(=O)N[C@@H](CN)C(=O)NCCCCl [Example 59] | > 500 |
| CC(C)CC[C@H](NS(=O)(=O)c1cc(Cl)c(Cl)s1)C(=O)N[C@@H](Cc1ccc(I)cc1)C(=O)N[C@@H](CC(F)(F)F)C(=O)NCCCCl [Example 66] | > 125 |
| CC(C)CC[C@H](NS(=O)(=O)c1cc(Cl)c(Cl)s1)C(=O)N(C)[C@@H](Cc1ccc(I)cc1)C(=O)N[C@@H](CN1CCOCC1)C(=O)NCCCCl [Example 67] | > 500 |
| CC(C)CC[C@H](NS(=O)(=O)c1cc(Cl)c(Cl)s1)C(=O)N[C@@H](Cc1ccc(I)cc1)C(=O)N[C@@H](CS(N)(=O)=O)C(=O)NCCCCl [Example 68] | > 500 |
| CNC[C@H](NC(=O)[C@H](Cc1ccc(I)cc1)NC(=O)[C@H](CCC(C)C)NS(=O)(=O)c1cc(Cl)c(Cl)s1)C(=O)NCCCCl [Example 72] | > 500 |
